Results reported in ChEMBL document CHEMBL3272190, “(2-exo-3-endo)-2-Aryltropane-3-carboxylic esters, a new class of narcotic antagonists” (J Med Chem, 1978).
Activity calls are given as the source filed them. The calls are words filed in the database; no cut-off is given here.

Assays:
Rattus norvegicus [1] = experiment: Narcotic analgesic activity in sc dosed rat assessed as inhibition of phenazocine-induced effect by D'Amour-Smith tail flick test; format: functional
Mus musculus [2] = experiment: Antiwrithing activity in sc dosed mouse assessed as prevention of acetylcholine-induced abdominal constriction response; format: functional; conditions: Abdomen
Mus musculus [3] = experiment: Induction of hyperactiveness in mouse at 30 mg/kg, sc; format: organism-based; set-up: dose 30 mg/kg, route subcutaneous; conditions: in vivo
Rattus norvegicus [4] = experiment: Analgesic activity in rat assessed as inhibition of intraarterial bradykinin-induced effect up to 100 mg/kg, sc; format: functional; set-up: scale not given: the % may be the effect or the level left
Mus musculus [5] = experiment: Antiwrithing activity in sc dosed mouse assessed as prevention of phenyl-p-benzoquinone-induced abdominal constriction response; format: functional; conditions: Abdomen
Mus musculus [6] = experiment: Induction of hyperactiveness in mouse at 75 mg/kg, sc; format: organism-based; set-up: dose 75 mg/kg, route subcutaneous; conditions: in vivo
Rattus norvegicus [7] = experiment: Induction of hyperactiveness in rat at 120 mg/kg, sc; format: organism-based; set-up: dose 120 mg/kg, route subcutaneous; conditions: in vivo
Rattus norvegicus [8] = experiment: Narcotic analgesic activity in po dosed rat assessed as inhibition of phenazocine-induced effect by D'Amour-Smith tail flick test; format: functional
Rattus norvegicus [9] = experiment: Induction of tremors in rat at 120 mg/kg, sc; format: organism-based; set-up: dose 120 mg/kg, route subcutaneous; conditions: in vivo
Mus musculus [10] = experiment: Induction of tremors in mouse at 35 mg/kg, sc; format: organism-based; set-up: dose 35 mg/kg, route subcutaneous; conditions: in vivo
Mus musculus [11] = experiment: Induction of depression in mouse at 35 mg/kg, sc; format: organism-based; set-up: dose 35 mg/kg, route subcutaneous; conditions: in vivo
Rattus norvegicus [12] = experiment: Induction of convulsion in rat at 120 mg/kg, sc; format: organism-based; set-up: dose 120 mg/kg, route subcutaneous; conditions: in vivo
Rattus norvegicus [13] = experiment: Toxicity in rat assessed as mortality at 160 mg, sc; format: organism-based; conditions: in vivo
Mus musculus [14] = experiment: Induction of convulsion in mouse at 100 mg/kg, sc; format: organism-based; set-up: dose 100 mg/kg, route subcutaneous; conditions: in vivo
Rattus norvegicus [15] = experiment: Narcotic analgesic activity in rat assessed as inhibition of phenazocine-induced effect at 80 mg, sc by D'Amour-Smith tail flick test; format: functional
Rattus norvegicus [16] = experiment: Induction of rigidity in rat at 120 mg/kg, sc; format: organism-based; set-up: dose 120 mg/kg, route subcutaneous; conditions: in vivo
Mus musculus [17] = experiment: Antiwrithing activity in po dosed mouse assessed as prevention of acetylcholine-induced abdominal constriction response; format: functional; conditions: Abdomen
Rattus norvegicus [18] = experiment: Analgesic activity in rat assessed as inhibition of intraarterial bradykinin-induced effect at 10 mg/kg, sc; format: functional, organism-based; set-up: dose 10 mg/kg
Rattus norvegicus [19] = experiment: Toxicity in rat assessed as mortality at >10 mg, ip; format: organism-based; conditions: in vivo
Rattus norvegicus [20] = experiment: Narcotic analgesic activity in rat assessed as inhibition of phenazocine-induced effect at 10 mg, ip by D'Amour-Smith tail flick test; format: functional, organism-based
Mus musculus [21] = experiment: Induction of depression in mouse at 75 mg/kg, sc; format: organism-based; set-up: dose 75 mg/kg, route subcutaneous; conditions: in vivo

SMILES: COC(=O)[C@H]1C[C@H]2CC[C@H]([C@H]1c1ccc(O)cc1)N2C (racemic)
- AD50 (Rattus norvegicus [1]): >80 mg/kg
- ED50 (Mus musculus [2]): 7.1 mg/kg
- Activity (Mus musculus [3]): Toxic

SMILES: COC(=O)[C@@H]1C[C@H]2CC[C@H]([C@H]1c1cccc(O)c1)N2C (racemic)
- Activity (Rattus norvegicus [4]; route subcutaneous): 0%
- AD50 (Rattus norvegicus [1]): >80 mg/kg
- ED50 (Mus musculus [5]): 100 mg/kg
- ED50 (Mus musculus [2]): 24 mg/kg

SMILES: COC(=O)[C@H]1C[C@H]2CC[C@H]([C@H]1c1cccc(O)c1)N2C (racemic)
- Activity (Mus musculus [6]): Toxic
- AD50 (Rattus norvegicus [1]): 0.37 mg/kg
- ED50 (Mus musculus [5]): 75 mg/kg
- ED50 (Mus musculus [2]): 16 mg/kg
- Activity (Rattus norvegicus [7]): Toxic
- AD50 (Rattus norvegicus [8]): 1.8 mg/kg
- Activity (Rattus norvegicus [9]): Toxic

SMILES: COC(=O)[C@H]1C[C@H]2CC[C@H]([C@H]1c1cccc(OC)c1)N2C (racemic)
- AD50 (Rattus norvegicus [1]): >80 mg/kg
- ED50 (Mus musculus [2]): 19 mg/kg
- Activity (Mus musculus [10]): Toxic
- Activity (Mus musculus [11]): Toxic

SMILES: COC(=O)[C@@H]1C[C@H]2CC[C@H]([C@H]1Cc1ccccc1)N2C (racemic)
- Activity (Mus musculus [6]): Toxic
- Activity (Rattus norvegicus [12]): Toxic
- AD50 (Rattus norvegicus [1]): >80 mg/kg
- ED50 (Mus musculus [2]): 5.8 mg/kg

SMILES: COC(=O)[C@H]1C[C@H]2CC[C@H]([C@H]1Cc1ccccc1)N2C (racemic)
- Activity (Rattus norvegicus [12]): Toxic
- ED50 (Rattus norvegicus [1]; Rattus norvegicus, Tail, sc): 54 mg/kg
- ED50 (Mus musculus [5]): 20 mg/kg
- ED50 (Mus musculus [2]): 4.4 mg/kg
- Activity (Rattus norvegicus [13]): Toxic
- Activity (Mus musculus [14]): Toxic
- inhibition (INH) (Rattus norvegicus [15]): 69%

SMILES: COC(=O)[C@@H]1C[C@H]2CC[C@H]([C@H]1c1cccs1)N2C (racemic)
- Activity (Rattus norvegicus [4]): Active
- Activity (Rattus norvegicus [12]): Toxic
- AD50 (Rattus norvegicus [1]): >80 mg/kg
- ED50 (Mus musculus [2]): 12 mg/kg
- Activity (Rattus norvegicus [16]): Toxic
- ED50 (Mus musculus [17]): 35 mg/kg
- Activity (Rattus norvegicus [9]): Toxic

SMILES: COC(=O)[C@@H]1C[C@H]2CC[C@H]([C@H]1c1ccc[nH]1)N2C (racemic)
- Activity (Rattus norvegicus [18]): inactive
- AD50 (Rattus norvegicus [1]): 56 mg/kg
- ED50 (Mus musculus [2]): 13 mg/kg
- ED50 (Mus musculus [17]): 42 mg/kg

SMILES: COC(=O)[C@H]1CCN(C)C[C@H]1c1ccccc1 (relative stereo)
- ED50 (Mus musculus [2]): 16 mg/kg
- Activity (Rattus norvegicus [19]): Toxic
- Activity (Rattus norvegicus [20]): inactive
- Activity (Mus musculus [21]): Toxic

SMILES: COC(=O)[C@H]1CCN(C)C[C@@H]1c1ccccc1 (relative stereo)
- ED50 (Mus musculus [2]): 16 mg/kg
- Activity (Rattus norvegicus [19]): Toxic
- Activity (Rattus norvegicus [20]): inactive
- Activity (Mus musculus [21]): Toxic

SMILES: COC(=O)[C@@H]1CCN(C)C[C@@H]1c1cccs1 (relative stereo)
- AD50 (Rattus norvegicus [1]): 49 mg/kg

SMILES: COC(=O)[C@H]1CCN(C)C[C@@H]1c1cccs1 (relative stereo)
- AD50 (Rattus norvegicus [1]): 5.6 mg/kg

SMILES: CCOC(=O)C1(c2ccccc2)CCN(C)CC1 [MEPERIDINE]
- AD50 (Rattus norvegicus [1]): 19 mg/kg
- AD50 (Rattus norvegicus [8]): 25 mg/kg

SMILES: CN1CC[C@]23c4c5ccc(O)c4O[C@H]2[C@@H](O)C=C[C@H]3[C@H]1C5 [MORPHINE]
- AD50 (Rattus norvegicus [1]): 29 mg/kg
- AD50 (Rattus norvegicus [8]): 13 mg/kg

SMILES: C=CCN1CC[C@]23c4c5ccc(O)c4O[C@H]2[C@@H](O)C=C[C@H]3[C@H]1C5 [NALORPHINE]
- AD50 (Rattus norvegicus [1]): 0.1 mg/kg
- ED50 (Mus musculus [5]): 15 mg/kg
- AD50 (Rattus norvegicus [8]): 6 mg/kg

SMILES: C=CCN1CC[C@]23c4c5ccc(O)c4O[C@H]2C(=O)CC[C@@]3(O)[C@H]1C5 [NALOXONE]
- AD50 (Rattus norvegicus [1]): 0.008 mg/kg
- ED50 (Mus musculus [5]): 103 mg/kg
- ED50 (Mus musculus [2]): 60 mg/kg
